{"source": "paper PMC3973694", "about": "“Identification of Odorant-Receptor Interactions by Global Mapping of the Human Odorome” (PLoS ONE, 2014)", "key": {"[1]": {"biological_target": "human cannabinoid receptor CB1 (Homo sapiens, UniProt P21554)", "sequence (P21554 whole entry)": "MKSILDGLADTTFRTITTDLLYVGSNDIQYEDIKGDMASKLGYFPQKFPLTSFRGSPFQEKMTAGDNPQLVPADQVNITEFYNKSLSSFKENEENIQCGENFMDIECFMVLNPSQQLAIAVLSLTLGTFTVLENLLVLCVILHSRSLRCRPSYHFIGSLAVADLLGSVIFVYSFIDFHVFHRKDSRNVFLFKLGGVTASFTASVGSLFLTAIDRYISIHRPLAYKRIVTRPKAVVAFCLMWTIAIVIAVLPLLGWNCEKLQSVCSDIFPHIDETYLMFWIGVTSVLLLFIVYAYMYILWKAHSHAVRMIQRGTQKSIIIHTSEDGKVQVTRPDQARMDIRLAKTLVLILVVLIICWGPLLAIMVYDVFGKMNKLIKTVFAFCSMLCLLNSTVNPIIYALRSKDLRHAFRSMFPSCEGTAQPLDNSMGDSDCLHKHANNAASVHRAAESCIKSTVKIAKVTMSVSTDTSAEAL", "assay": "GloSensor cAMP assay, CB1-transfected HEK293 cells", "type": "cell-based", "conditions": "for EC50: increase in cAMP production, forskolin-stimulated control cells, mean ± s.e.m., three experiments"}, "[2]": {"biological_target": "T1, human PPARγ ligand binding domain (Homo sapiens, UniProt P37231)", "T1 sequence (P37231 238-503 limits assumed)": "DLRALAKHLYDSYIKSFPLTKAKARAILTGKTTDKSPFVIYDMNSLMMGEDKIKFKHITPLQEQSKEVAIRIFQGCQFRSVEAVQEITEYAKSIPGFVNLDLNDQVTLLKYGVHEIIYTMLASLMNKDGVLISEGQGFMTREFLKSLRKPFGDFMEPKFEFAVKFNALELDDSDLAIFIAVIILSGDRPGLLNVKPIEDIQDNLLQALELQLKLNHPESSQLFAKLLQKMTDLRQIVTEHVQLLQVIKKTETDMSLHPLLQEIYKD", "assay": "Competitive PPARγ binding assay (LanthaScreen TR-FRET)", "conditions": "IC50 (inhibition of binding), displacement of fluorescent pan PPAR agonist tracer", "method": "To validate predictions of odorant-PPARγ interactions, IC50 values for respective compounds were determined by competitive binding using time-resolved fluorescence resonance energy transfer (LanthaScreen, Invitrogen) on a Wallac EnVision (PerkinElmer).\nTo validate predictions of odorant-PPARγ interactions, IC50 values for respective compounds were determined by competitive binding using time-resolved fluorescence resonance energy transfer (LanthaScreen, Invitrogen) on a Wallac EnVision (PerkinElmer). A terbium labeled anti-GST antibody was used to label purified GST-tagged human PPARγ ligand binding domain. Energy transfer from terbium to the tracer, a fluorescent pan PPAR agonist, enabled read-out of each test compound’s ability to displace the tracer. […] An unrestrained sigmoidal (one-binding site) dose-response curve was fitted to each data set by linear regression allowing for determination of IC50 values."}, "Hana3A cells": {"test_system": "Hana3A cells", "assay": "Cytotoxic effects seen in the OR GloSensor assay", "type": "cell-based", "conditions": "no saturation of the response could be observed", "protocol": "(§1) To validate predicted odorant compound-OR interactions, we used the GloSensor™ cAMP assay (Promega, Charbonnières-Les-Bains, France) to measure EC50 values of compounds. The functional assay was performed in Hana3A cells, a HEK293T-derived cell line optimized for OR expression. Hana3A cells were grown in Minimal Essential Medium (MEM; Life Technologies, Villebon-sur-Yvette, France) supplemented with 10% fetal bovine serum (PAA Laboratories, Les Mureaux, France), 100 μM Eagle’s non-essential amino acids, 2 mM glutamax (Life Technologies) and 1 μg/ml puromycin (Sigma-Aldrich, Saint-Quentin Fallavier, France). The cells were cultured at 37°C in a humidified atmosphere containing 7.3% CO2. Forty-eight hours before performing the GloSensor™ cAMP assay, cells were plated on poly-D-lysine coated 96-well plates (BD Biosciences, Le Pont de Claix, France) at a density of 3x10^4 cells per well. Twenty-four hours later, cells were transiently transfected with the OR expression plasmid (50 ng per well) together with the pCI-RTP1S plasmid and the pGlo™-22F cAMP plasmid (Promega) (10 ng and 100 ng per well, respectively) using Fugene®HD (Promega) according to the manufacturer instructions. […] Luminescence was measured with a Victor 3V plate reader (Perkin Elmer, Courtaboeuf, France) after addition of odorant solutions (10 μl). […]"}, "OR5P3": {"biological_target": "T2, OR5P3 (Homo sapiens, UniProt Q8WZ94)", "T2 construct": "host or cells: Hana3A cells (HEK293T-derived), co-transfected with pCI-RTP1S and pGlo-22F", "T2 sequence (Q8WZ94 1-311)": "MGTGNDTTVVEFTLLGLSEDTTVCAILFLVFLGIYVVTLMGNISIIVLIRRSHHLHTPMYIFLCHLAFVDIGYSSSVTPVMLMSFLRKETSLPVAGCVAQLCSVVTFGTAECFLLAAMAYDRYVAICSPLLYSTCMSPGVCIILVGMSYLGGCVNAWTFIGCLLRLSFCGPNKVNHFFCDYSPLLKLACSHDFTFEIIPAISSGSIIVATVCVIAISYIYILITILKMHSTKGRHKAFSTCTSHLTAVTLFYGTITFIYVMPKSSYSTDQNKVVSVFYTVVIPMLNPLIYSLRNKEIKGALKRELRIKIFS", "assay": "GloSensor cAMP assay, OR5P3-transfected Hana3A cells", "type": "cell-based", "conditions": "activation of OR5P3, Hana3A cells, mean ± s.e.m., at least three experiments", "text": "(§2) To validate predicted interactions between odorant compounds and ORs or the CB1 receptor, we used the GloSensor cAMP assay from Promega and measured the EC50 values of compounds. This luminescent assay is a sensitive method for measuring Gs and Gi- protein coupled receptor activation by real-time detection of intracellular second messenger cAMP [44]. The protocol is described in the GloSensor cAMP assays paragraph in the Supplementary Methods (S_file).\n(§3) All odorants used in these assays were purchased from Sigma-Aldrich (Saint-Quentin Fallavier, France) except celery ketone, which was kindly provided by B. Schilling (Givaudan Schweiz AG, Dübendorf, Switzerland). The stock solutions of odorants (100 mM) were prepared in dimethylsulfoxide (DMSO) and were stored at -20°C. Immediately prior to the assays, the stock solutions of odorants were diluted in the CO2-independent medium (Gibco®, Life Technologies) to the appropriate concentrations. The final concentration of DMSO in wells never exceeded 1% (v/v); this concentration had no effect on GloSensor cAMP assays.\nas §1, with “well.” for “well. Twenty-four hours later, cells were transiently transfected with the OR expression plasmid (50 ng per well) together with the pCI-RTP1S plasmid and the pGlo™-22F cAMP plasmid (Promega) (10 ng and 100 ng per well, respectively) using Fugene®HD (Promega) according to the manufacturer instructions.”"}, "OR51E1": {"biological_target": "T3, OR51E1 (Homo sapiens, UniProt Q8TCB6)", "T3 construct": "host or cells: Hana3A cells (HEK293T-derived), co-transfected with pCI-RTP1S and pGlo-22F", "T3 sequence (Q8TCB6 1-318)": "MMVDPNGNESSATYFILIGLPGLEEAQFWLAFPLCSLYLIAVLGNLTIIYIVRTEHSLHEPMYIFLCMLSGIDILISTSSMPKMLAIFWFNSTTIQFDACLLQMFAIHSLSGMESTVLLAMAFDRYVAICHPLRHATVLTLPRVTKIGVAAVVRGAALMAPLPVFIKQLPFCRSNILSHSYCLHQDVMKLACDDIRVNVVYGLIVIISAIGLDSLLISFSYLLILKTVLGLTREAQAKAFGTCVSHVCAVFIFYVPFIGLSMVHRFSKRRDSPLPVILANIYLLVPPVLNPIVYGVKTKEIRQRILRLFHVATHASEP", "assay": "GloSensor cAMP assay, OR51E1-transfected Hana3A cells", "type": "cell-based", "text": "as §2, §3\nas §1, with “instructions. In addition, to check that induced activities are OR-dependent, mock transfections were performed by transfecting the cells with the pCI plasmid in place of the OR expression plasmid.” for “instructions.”"}, "OR2W1": {"biological_target": "T4, OR2W1 (Homo sapiens, UniProt Q9Y3N9)", "T4 construct": "host or cells: Hana3A cells (HEK293T-derived), co-transfected with pCI-RTP1S and pGlo-22F", "T4 sequence (Q9Y3N9 1-320)": "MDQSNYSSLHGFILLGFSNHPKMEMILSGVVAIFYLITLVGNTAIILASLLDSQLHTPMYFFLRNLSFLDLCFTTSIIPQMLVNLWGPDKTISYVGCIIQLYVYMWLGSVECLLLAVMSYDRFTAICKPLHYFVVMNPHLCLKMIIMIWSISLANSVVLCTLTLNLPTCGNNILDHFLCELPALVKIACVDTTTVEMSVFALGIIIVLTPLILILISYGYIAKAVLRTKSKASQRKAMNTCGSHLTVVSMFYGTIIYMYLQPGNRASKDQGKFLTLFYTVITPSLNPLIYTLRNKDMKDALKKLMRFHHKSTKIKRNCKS", "assay": "GloSensor cAMP assay, OR2W1-transfected Hana3A cells", "type": "cell-based", "conditions": "activation of OR2W1, Hana3A cells, mean ± s.e.m., at least three experiments", "text": "as §2, §3\nas §1, with “well.” for “well. Twenty-four hours later, cells were transiently transfected with the OR expression plasmid (50 ng per well) together with the pCI-RTP1S plasmid and the pGlo™-22F cAMP plasmid (Promega) (10 ng and 100 ng per well, respectively) using Fugene®HD (Promega) according to the manufacturer instructions.”"}, "[3]": {"conditions": "absence or presence of pertussis toxin"}, "[4]": {"conditions": "activation of OR51E1, Hana3A cells, mean ± s.e.m., at least three experiments, read-out: EC50"}}, "note": "Values joined by “and” are separate entries in the source; they are usually repeats but may differ in a detail not shown here. Equal values may be shown once. Where a name gives a salt, the structure may show the parent alone. Read-outs that look alike come from different tables or passages of the source."}
{"smiles": "CCCCOC(=O)CC(CC(=O)OCCCC)(OC(C)=O)C(=O)OCCCC", "note": "[Tributyl acetyl citrate]", "values": [{"measurement": "mode of action at CB1", "setting": "[1]; [3]", "value": "inverse agonists"}, {"measurement": "EC50", "setting": "[1]", "value": "122 ± 25.2", "unit": "µM"}]}
{"smiles": "O=C(OCCc1ccccc1)c1ccccc1O", "note": "[phenylethyl salicylate]", "values": [{"measurement": "IC50", "setting": "[2]", "value": "9.2 µM and 14.7 µM"}]}
{"smiles": "CCCCCCC(C)(C)c1cc(O)c2c(c1)OC(C)(C)[C@@H]1CC=C(CO)C[C@@H]21", "note": "[HU210, (6aR)-trans-3-(1,1-dimethylheptyl)-6a,7,10,10a,-tetrahydro-1-hydroxy-6,6-dimethyl-6H-dibenzo[b,d]pyran-9-methanol, reference compound]", "values": [{"measurement": "mode of action at CB1", "setting": "[1]", "value": "agonists"}]}
{"smiles": "CCCC1CC(=O)C=C(C)C1", "note": "(stereo not drawn) [celery ketone]", "values": [{"measurement": "concentrations with cytotoxic effects", "setting": "Hana3A cells", "value": "higher than 10^−3 M"}, {"measurement": "EC50", "setting": "OR5P3", "value": 483, "unit": "µM"}]}
{"smiles": "CC(C)CC(=O)O", "note": "[Isovaleric acid]", "values": [{"measurement": "EC50", "setting": "OR51E1; [4]", "value": 153, "unit": "µM"}]}
{"smiles": "C=C(C)C1CC=C(C)C(=O)C1", "note": "(single isomer, unassigned; (-)) [(-)-carvone, reference compound]", "values": [{"measurement": "EC50", "setting": "OR5P3", "value": 388, "unit": "µM"}]}
{"smiles": "CC(C)=CCC/C(C)=C/C=O", "note": "[Citral]", "values": [{"measurement": "EC50", "setting": "OR2W1", "value": 129, "unit": "µM"}]}
{"smiles": "CCCCCCCCC(=O)O", "note": "[Nonanoic acid, reference compound]", "values": [{"measurement": "EC50", "setting": "OR51E1", "value": 197, "unit": "µM"}]}
{"smiles": "O=C1C[C@@H](c2ccc(O)cc2)Oc2cc(O)cc(O)c21", "note": "[naringenin]", "values": [{"measurement": "IC50", "setting": "[2]", "value": 7.4, "unit": "µM"}]}
{"smiles": "CCCCCCCCO", "note": "[1-octanol]", "values": [{"measurement": "concentrations with cytotoxic effects", "setting": "Hana3A cells", "value": "higher than 10^−3 M"}, {"measurement": "EC50", "setting": "OR5P3", "value": 115, "unit": "µM"}]}
{"smiles": "CCC(=O)O", "note": "[Propionic acid]", "values": [{"measurement": "fold lower activity", "setting": "OR51E1; OR51E1, compared with isovaleric acid and nonanoic acid", "value": 5, "unit": "fold"}, {"measurement": "EC50", "setting": "OR51E1; [4]", "value": 923, "unit": "µM"}]}
{"smiles": "CC(C)=CCCC(C)CC=O", "note": "(stereo not drawn) [Citronellal]", "values": [{"measurement": "EC50", "setting": "OR2W1", "value": 208, "unit": "µM"}]}
{"smiles": "CCCCCC(=O)OCCc1ccccc1", "note": "[2-Phenylethyl hexanoate]", "values": [{"measurement": "mode of action at CB1", "setting": "[1]; [3]", "value": "inverse agonists"}, {"measurement": "EC50", "setting": "[1]", "value": "509 ± 8.3", "unit": "µM"}]}
{"smiles": "CC(=O)OCc1ccccc1", "note": "[Benzyl acetate, reference compound]", "values": [{"measurement": "EC50", "setting": "OR2W1", "value": "34.3 ± 1.17", "unit": "µM"}]}
{"smiles": "CCCCCCCC(C)=O", "note": "[2-Nonanone]", "values": [{"measurement": "mode of action at CB1", "setting": "[1]; [3]", "value": "inverse agonists"}, {"measurement": "EC50", "setting": "[1]", "value": "363 ± 80.7", "unit": "µM"}]}
